In PMC12668310, “High‐Throughput Synthesis and Screening of a Cyanimide Library Identifies Selective Inhibitors of ISG15‐Specific Protease mUSP18” (Angewandte Chemie (International Ed. in English), 2025):
Like-named read-outs stand apart in the source and are kept apart here.

Biological target: T1, mUSP18 (Mus musculus, UniProt Q9WTV6)
T1 construct: (46-368); His-tag (N); made in house
T1 sequence (Q9WTV6 46-368): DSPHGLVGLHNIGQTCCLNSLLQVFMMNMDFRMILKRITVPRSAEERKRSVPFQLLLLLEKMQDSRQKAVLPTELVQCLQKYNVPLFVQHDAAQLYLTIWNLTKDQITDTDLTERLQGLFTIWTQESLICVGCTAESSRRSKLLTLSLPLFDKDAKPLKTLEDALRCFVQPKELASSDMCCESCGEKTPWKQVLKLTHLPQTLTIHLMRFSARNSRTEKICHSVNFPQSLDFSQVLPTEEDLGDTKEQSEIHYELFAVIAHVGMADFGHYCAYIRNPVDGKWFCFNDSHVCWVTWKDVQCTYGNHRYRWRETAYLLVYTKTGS
Test: High-throughput screening, ISG15ct-RhoMP, single dose 1.25 µM
Format: biochemical, murine

[1] = mUSP18 %inhibition, carboxylic acid (CA) building block alone, read-out: %inh CA only
[2] = mUSP18 %inhibition, carboxylic acid (CA) with coupling reagents DIC/HOBT, read-out: %inh CA + DIC/HOBT
[3] = mUSP18 %inhibition, carboxylic acid (CA) building block alone
[4] = mUSP18 %inhibition, carboxylic acid (CA) with coupling reagents DIC/HOBT

| inhibition at 1.25 µM [1] [%] | inhibition at 1.25 µM [2] [%] | SMILES | further results |
| --- | --- | --- | --- |
| 4.64 | -9.16 | CSCCC(NC(C)=O)C(=O)O (stereo not shown) [CA001] |  |
| 0.89 | -10.9 | CC(=O)NCC(=O)O [CA002] |  |
| -0.18 | -12.3 | CC(C)CC(=O)O [CA003] |  |
| -4.47 | -12.2 | O=C(O)c1ccccc1I [CA004] |  |
| -4.83 | -18 | CC(C)C(=O)O [CA005] |  |
| -6.56 | -10.7 | Cc1cc(OCC(=O)O)ccc1C(C)C [CA006] |  |
| -4.83 | -14.7 | CCCC(=O)O [CA007] |  |
| -1.43 | -19.3 | CC(C)(C)OC(=O)Nc1ccccc1C(=O)O [CA009] |  |
| -2.59 | -11.3 | Cc1cncc(C(=O)O)c1 [CA010] |  |
| 7.63 | -2.16 | O=C(O)CCN1C(=O)C=CC1=O [CA011] |  |
| -3.85 | -8.78 | O=C(O)Cc1ccc([N+](=O)[O-])cc1 [CA012] |  |
| 7.76 | -7.61 | O=C(O)Cc1ccccc1[N+](=O)[O-] [CA013] |  |
| -1.43 | -9.92 | C#CCCC(=O)O [CA014] |  |
|  |  | O=C(O)c1cnccn1 [CA015] | %inh CA only [3]: -1.35%; %inh CA + DIC/HOBT [4]: -15.60% |
| 3.44 | -5.83 | O=C(O)c1ccc(/N=N/c2ccccc2)cc1 [CA016] |  |
| -7.18 | -13 | O=C(O)Cc1ccncc1 [CA017] |  |
| -2.06 | -10.4 | Cn1c(=O)c2c(ncn2CC(=O)O)n(C)c1=O [CA018] |  |
| -4.39 | -8.67 | O=C(O)CNC(=O)c1ccccc1 [CA019] |  |

| inhibition at 1.25 µM [1] [%] | inhibition at 1.25 µM [2] [%] | SMILES | further results |
| --- | --- | --- | --- |
| -7.88 | -9.11 | O=C(O)c1ccc(B(O)O)cc1 [CA020] |  |
| -6.16 | -9.92 | CC(C)(C)OC(=O)NCC(=O)O [CA021] |  |
| -5.49 | -14.3 | O=C(O)CCCCBr [CA023] |  |
| -2.41 | -9.9 | O=C(O)C(Br)c1ccccc1 (stereo not shown) [CA024] |  |
| 7.25 | -8.17 | O=C(O)CCCCCBr [CA025] |  |
| 2.38 | -14.8 | O=C(O)c1ccccc1CCc1ccccc1 [CA026] |  |
| 0.19 | -11.3 | O=C(O)c1ccc(CBr)cc1 [CA027] |  |
| -3.46 | -11 | Cc1cc(C(=O)O)ccc1Br [CA028] |  |
|  |  | C#CCCCC(=O)O [CA029] | inhibition at 1.25 µM (read-out: %inh CA + DIC/HOBT): -11.6%; inhibition at 1.25 µM (read-out: %inh CA only): -3.41% |
| -2.62 | -9.45 | O=C(O)c1nccc2ccccc12 [CA030] |  |
| -3.59 | -10.1 | Cc1c(Br)cccc1C(=O)O [CA031] |  |
| -5.09 | -11.3 | CC(=O)CCCCC(=O)O [CA032] |  |
|  |  | Cc1ccc(Br)c(C(=O)O)c1 [CA033] | %inh CA only [3]: -2.06%; %inh CA + DIC/HOBT [4]: -9.49% |
| -2.15 | -14 | O=C(O)c1sccc1Br [CA034] |  |
| 9.05 | 23.4 | O=C(NNc1ccc(C(=O)O)cc1)OCC1c2ccccc2-c2ccccc21 [CA035] |  |
| 9.56 | -5.24 | O=Cc1ccc(C(=O)O)cc1 [CA037] |  |
| 6.69 | -7.2 | O=C(O)c1cccc2c1-c1ccccc1C2 [CA038] |  |
| 1.03 | -7.73 | O=Cc1ccc(O)c(C(=O)O)c1 [CA040] |  |

| SMILES | inhibition at 1.25 µM [1] [%] | inhibition at 1.25 µM [2] [%] | further results |
| --- | --- | --- | --- |
| CC(C)(C)OC(=O)N[C@@H](Cc1cn(-c2ccc([N+](=O)[O-])cc2[N+](=O)[O-])cn1)C(=O)O [CA022] | -4.55 | -8.26 |  |
| O=Cc1cn(CC(=O)O)c2ccccc12 [CA036] | -2.36 | -8.7 |  |
